System: ATF4 luciferase reporter in HEK293T cells
Assay: ATF4-Luc assay (ATF4 luciferase reporter, tunicamycin-treated HEK293T cells)
Type: cell-based, human
Settings: Homo sapiens, HEK-293T; HEK293T cells carrying the ATF4 luciferase reporter, 1 μg/mL tunicamycin, 7 hours

| SMILES | EC50 [nM] |
| --- | --- |
| Cc1cc(OCC(=O)NC23CC(NC(=O)COc4ccc(Cl)c(F)c4)(C2)C3)ncc1Cl [Compound 216, 2-(4-chloro-3-fluorophenoxy)-N-(3-{2-[(5-chloro-4-methylpyridin-2-yl)oxy]acetamido}bicyclo[1.1.1]pentan-1-yl)acetamide] | 50 to 250 |
| O=C(COc1cnc(OC2CCC2)nc1)NC12CCC(NC(=O)COc3ccc(Cl)c(F)c3)(CC1)[C@@H](O)C2 [Compound 636, 2-(4-chloro-3-fluorophenoxy)-N-[(2S)-4-(2-{[2-(cyclobutyloxy)pyrimidin-5-yl]oxy}acetamido)-2-hydroxybicyclo[2.2.2]octan-1-yl]acetamide] | 250 to 500 |
| CCOc1ncc(OCC(=O)NC23CCC(NC(=O)COc4ccc(Cl)c(F)c4)(CC2)[C@@H](O)C3)cn1 [Compound 624, 2-(4-chloro-3-fluorophenoxy)-N-[(2S)-4-{2-[(2-ethoxypyrimidin-5-yl)oxy]acetamido}-2-hydroxybicyclo[2.2.2]octan-1-yl]acetamide] | < 10 |
| O=C(COc1ccc(Cl)c(F)c1)NC12CCC(NC(=O)COc3ccc(Cl)c(F)c3)(CC1)C(NC1COC1)C2 (centres unmarked) [Compound 722, N,N′-{2-[(oxetan-3-yl)amino]bicyclo[2.2.2]octane-1,4-diyl}bis[2-(4-chloro-3-fluorophenoxy)acetamide]] | < 10 |
| CS(=O)(=O)c1ccc(OCC(=O)NC23CCC(NC(=O)COc4ccc(Cl)c(F)c4)(CC2)C[C@@H]3O)cc1 [Compound 504, 2-(4-chloro-3-fluorophenoxy)-N-[(3S)-3-hydroxy-4-{2-[4-(methanesulfonyl)phenoxy]acetamido}bicyclo[2.2.2]octan-1-yl] acetamide] | 50 to 250 |
| COc1cc(OCC(=O)NC23CC(NC(=O)COc4ccc(Cl)c(F)c4)(C2)C3)cnc1F [Compound 246, 2-(4-chloro-3-fluorophenoxy)-N-(3-{2-[(6-fluoro-5-methoxypyridin-3-yl)oxy]acetamido}bicyclo[1.1.1]pentan-1-yl)acetamide] | 10 to 50 |
| Nc1ncc(OCC(=O)NC23CC(NC(=O)COc4ccc(Cl)c(F)c4)(C2)C3)cc1Cl [Compound 250, 2-[(6-amino-5-chloropyridin-3-yl)oxy]-N-{3-[2-(4-chloro-3-fluorophenoxy)acetamido]bicyclo[1.1.1]pentan-1-yl}acetamide] | 50 to 250 |
| O=C(COc1ccc(Cl)c(F)c1)NC12CCC(=O)C(NC(=O)COc3ccc(Cl)c(F)c3)(CC1)C2 (centres unmarked) [Compound 671, N,N′-(2-oxobicyclo[3.2.1]octane-1,5-diyl)bis[2-(4-chloro-3-fluorophenoxy)acetamide]] | 500 to 2000 |
| CC(=O)c1ccc(OCC(=O)NC23CCC(NC(=O)COc4ccc(Cl)c(F)c4)(CC2)C[C@@H]3O)cc1 [Compound 511, 2-(4-acetylphenoxy)-N-{(2S)-4-[2-(4-chloro-3-fluorophenoxy)acetamido]-2-hydroxybicyclo[2.2.2]octan-1-yl}acetamide] | 10 to 50 |
| O=C(COc1ccc(F)c(C(F)F)c1)NC12CCC(NC(=O)COc3ccc(Cl)cc3)(CC1)[C@@H](O)C2 [Compound 774, 2-(4-chlorophenoxy)-N-[(2S)-4-{2-[3-(difluoromethyl)-4-fluorophenoxy]acetamido}-2-hydroxybicyclo[2.2.2]octan-1-yl]acetamide] | < 10 |
| N#CCc1cc(OCC(=O)NC23CC(NC(=O)COc4ccc(Cl)c(F)c4)(C2)C3)ccc1Cl [Compound 262, 2-[4-chloro-3-(cyanomethyl)phenoxy]-N-{3-[2-(4-chloro-3-fluorophenoxy)acetamido]bicyclo[1.1.1]pentan-1-yl}acetamide] | 10 to 50 |
| CC1(O)CC2(NC(=O)COc3ccc(Cl)c(F)c3)CCC1(NC(=O)COc1ccc(C(F)(F)F)nc1)CC2 (centres unmarked) [Compound 338, 2-(4-chloro-3-fluorophenoxy)-N-[3-hydroxy-3-methyl-4-(2-{[6-(trifluoromethyl)pyridin-3-yl]oxy}acetamido)bicyclo[2.2.2]octan-1-yl]acetamide] | 10 to 50 |
| Cc1ccc(OCC(=O)NC23CCC(NC(=O)COc4ccc(F)cc4)(CC2)[C@@H](O)C3)cc1F [Compound 731, 2-(3-fluoro-4-methylphenoxy)-N-{(3S)-4-[2-(4-fluorophenoxy)acetamido]-3-hydroxybicyclo[2.2.2]octan-1-yl}acetamide] | < 10 |
| O=C(COc1cccc(Cl)c1)NC12CC(NC(=O)COc3ccc(Cl)c(Cl)c3)(C1)C2 [Compound 171, 2-(3-chlorophenoxy)-N-{3-[2-(3,4-dichlorophenoxy)acetamido]-bicyclo[1.1.1]pentan-1-yl}acetamide] | < 10 |
| CC(O)(c1ccc(OCC(=O)NC23CC(NC(=O)COc4ccc(Cl)c(F)c4)(C2)C3)cc1)C(F)(F)F (centres unmarked) [Compound 413, 2-(4-chloro-3-fluorophenoxy)-N-(3-{2-[4-(1,1,1-trifluoro-2-hydroxypropan-2-yl)phenoxy]acetamido}bicyclo[1.1.1]pentan-1-yl)acetamide] | 250 to 500 |
| O=C(COc1ccc(Cl)c(F)c1)NC12CC(NC(=O)C(=O)Cc3ccc(Cl)cc3)(C1)C2 [Compound 312, N-{3-[2-(4-chloro-3-fluorophenoxy)acetamido]bicyclo[1.1.1]pentan-1-yl}-3-(4-chlorophenyl)-2-oxopropanamide] | 50 to 250 |
| N#Cc1ccc(OCC(=O)NC23CC(NC(=O)COc4ccc5c(c4)OC(F)(F)O5)(C2)C3)cn1 [Compound 267, 2-[(6-cyanopyridin-3-yl)oxy]-N-(3-{2-[(2,2-difluoro-2H-1,3-benzodioxol-5-yl)oxy]acetamido}bicyclo[1.1.1]pentan-1-yl)acetamide] | 50 to 250 |
| Cc1ccc(OCC(=O)NC23CCC(NC(=O)COc4ccc(Cl)c(F)c4)(CC2)[C@@H](O)C3)cc1F [Compound 737, 2-(4-chloro-3-fluorophenoxy)-N-{(2S)-4-[2-(3-fluoro-4-methylphenoxy)acetamido]-2-hydroxybicyclo[2.2.2]octan-1-yl}acetamide] | < 10 |
| O=C(COc1ccc(Cl)c(F)c1)NC12CC(NC(=O)CN(CCO)c3ccc(Cl)cc3)(C1)C2 [Compound 609, 2-(4-chloro-3-fluorophenoxy)-N-(3-{2-[(4-chlorophenyl)(2-hydroxyethyl)amino]acetamido}bicyclo[1.1.1]pentan-1-yl)acetamide] | > 2000 |
| O=C(COc1ccc(Cl)c(F)c1)NC12CCC(NC(=O)CNc3ccc(Cl)cc3)(CC1)[C@@H](O)C2 [Compound 657, 2-(4-chloroanilino)-N-{(2S)-4-[2-(4-chloro-3-fluorophenoxy)acetamido]-2-hydroxybicyclo[2.2.2]octan-1-yl}acetamide] | 50 to 250 |
| O=C(COc1ccc(Cl)c(F)c1)NC12CCC(NC(=O)COc3ncnc4sccc34)(CC1)[C@@H](O)C2 [Compound 514, 2-(4-chloro-3-fluorophenoxy)-N-[(3S)-3-hydroxy-4-{2-[(thieno[2,3-d]pyrimidin-4-yl)oxy]acetamido}bicyclo[2.2.2]octan-1-yl]acetamide] | 10 to 50 |
| O=C(COc1ccc(Cl)c(F)c1)NC12CC(NC(=O)COc3ccc(Cl)c(F)c3)(C1)C2 [Compound 186, N,N′-(bicyclo[1.1.1]pentane-1,3-diyl)bis[2-(4-chloro-3-fluorophenoxy)acetamide]] | < 10 |
| O=C(CCOc1ccc(Cl)c(F)c1)NC12CC(NC(=O)COc3ccc(Cl)c(F)c3)(C1)C2 [Compound 730, 3-(4-chloro-3-fluorophenoxy)-N-{3-[2-(4-chloro-3-fluorophenoxy)acetamido]bicyclo[1.1.1]pentan-1-yl}propanamide] | 10 to 50 |

Source: patent US20240166652A1, “MODULATORS OF THE INTEGRATED STRESS PATHWAY” (Calico Life Sciences LLC, priority 2017, published 2024)
